The source of these data is patent US20030203404A1, “Bioluminescence resonance energy transfer( bret) system with broad spectral resolution between donor and acceptor emission wavelengths and its use” (priority 1999, published 2003).

Data set [1] is described as follows: Coelenterazine 400a stock solution stability (luminescence with CHO cells expressing Rluc, BRETCount). It is filed as physicochemical. Here is the method:
Coelenterazine stability: Three different stock solutions of coelenterazine 400a (dissolved in anhydrous ethanol), prepared at different times, were tested using the BRETCount. CHO cells were transiently transfected with pcDNA3.1-Rluc only. Forty-eight hours later, 50 000 cells in complete BRET buffer were distributed in wells (96-well white Optiplate). Coelenterazine 400a from the various stocks were then added to start the bioluminescent reaction. […] A reduction of 22% is observed for the older stock (made Feb. 19, 1999) compared to a stock freshly made (Aug. 6, 1999). […].
FIG. 9 represents the same bioluminescent reactions as in FIG. 8 but at t=5 min after addition of the coelenterazines. In this case no significant difference was observed between the various coelenterazine stocks.
Coel400a stored for a longer period of time (6 months), does show a loss of potential but it remains acceptable and workable for the BRET system.

Data set [2] relates to HeLa cells transfected with the GFP1:Caspase-3:Rluc sensor. The experiment in a line: BRET apoptosis sensor assay. It is filed as cell-based. The conditions noted are these: staurosporine 1 μM, 5 hours. As to the method: PGFP1:caspase-3:Rluc DNAs and the original plasmid pGFP1::Rluc (without the caspase-3 site) were transfected into HeLa cell using LipofectAMINE (BRL/Gibco-Life technologies) in 100 mm dishes and 8 μg of plasmid DNA as described in the manufacturer's protocol. Twenty-four hours post-transfection transfected cells were harvested and distributed into 96-well microtiterplate (white Optiplate from Packard) at a density of 30 000 cells per well. […] Cells were incubated for 5 hours at 37° C. After this period, 50 μl of BRET buffer (PBS Ca^2+/Mg^2++glucose without aprotinin) and 50 μl of DeepBlueC (20 μM) were added to start the bioluminescence reaction. Total assay volume was 200 μl. Light emissions were detected using the BRETCount (read length of 1 sec. for each filter, SPC mode, temperature 25° C.).
In general terms: BRET reads energy transfer from a luciferase to a nearby fluorophore.

Another data set concerns the target V2-R (Homo sapiens, UniProt P30518). The conditions noted are these: AVP 50 nM, 20 minutes.
The target of another data set is V2 receptor (Homo sapiens, UniProt P30518). To be noted: saturating dose, V2-Rluc + β-arrestin2-GFP, FIG. 22.

Where two headings read alike, the source gives them in different places.

Description for V2 receptor: The Rluc (BDP) was fused to the C-terminus of the GPCR and the GFP (FAM) was fused to the C-terminus of β-arrestin. Therefore, shortly after ligand binding (5-30 minutes) the BRET ratio should increase due to binding of β-arrestin to the GPCR, which brings the GFP in proximity to Rluc.
HEK293 cell line were transiently transfected using the DNA constructs and LipofectAMINE™ 2000 (BRL/Gibco) in 100 mm dishes as described in the manufacturer's protocol. […] Bioluminescent reactions were analysed using the BRETCount with appropriate filters.
Transfected cells were added (50 000 cells (in BRET buffer) per well) to the wells in white 96-well plates (Optiplate, Packard Instrument). […] In the other half, BRET buffer, alone, was added. Cells were then incubated for 10-20 minutes at room temperature before adding the coel400a. The analysis was performed at 25° C., integration time 2 sec per wavelength in luminescence mode. The filters used were: for Rluc emission 410DF80 (from Omega); for GFP D515/50M (from Chroma). Coel400a, at a working concentration of 40 μM (final 5 μM), was added to each well to start the bioluminescent reaction. The final reaction volume was 50 μl. Assays were done in quadruplicate.
For all fusion constructs, a 6 amino acid linker was inserted, between the Rluc or GFP and the receptor (β2, β3 or V2) or β-arrestin2. […]
Description for V2-R: BRET assays: HEK293 cell line were transiently co-transfected using the donor and acceptor fusion construct DNAs and LipofectAMINE 2000 (Life Technologies) in 100 mm dishes as described in the manufacturer's protocol. For the transfections, a DNA ratio of 4 μg:46 μg (donor fusion construct: acceptor fusion construct) was used. The donor fusion constructs were the V2-R:Rluc (h) fusion constructs and the acceptor fusion construct was either the pcDNA3.1hyg/GFP1:β-arrestin2 or the pcDNA3.1hyg/β-arrestin2:GFP1. […] Fifty thousand transfected cells per well were added to white 96-well plates (Optiplate, Packard Instrument Company). […] Cells were then incubated for 20 minutes at room temperature in a total volume of 37.5 μl. After the incubation period, 12.5 μl of DeepBlueC at 20 μM (also called Coel400a) was added in each well (final concentration of 5 μM). Final assay volume was 50 μl. Donor and acceptor light outputs were quantified with the Fusion microtiterplate analyzer (Packard Instrument Company) using the following instrument setting:
Read length: 1 sec per well per filter.
Results represent the mean+/−SEM of quadruplicate wells. […] In all cases, background levels (wells with only DBC in PBS+) were subtracted.

With `O=c1c(Cc2ccccc2)nc2c(Cc3ccccc3)[nH]c(-c3ccccc3)cn1-2` [Coelenterazine 400a, phenylcoelenterazine], in data set [1] (stock in anhydrous ethanol made Feb. 19, 1999 compared to stock freshly made (Aug. 6, 1999)), the “reduction of luminescent signal immediately after addition of the substrate” value amounted to 22%. Further, in data set [1] (stock in anhydrous ethanol made Jul. 22, 1999 compared to stock freshly made (Aug. 6, 1999)), the “luminescence reduction immediately after addition of the substrate” value is “did not demonstrate significant luminescence reduction”.
For `CN[C@@H]1C[C@H]2O[C@@](C)([C@@H]1OC)n1c3ccccc3c3c4c(c5c6ccccc6n2c5c31)C(=O)NC4` [staurosporine], the “BRET ratio change (decrease)” value in data set [2] (cells transfected with pGFP1:caspase-3:Rluc, time zero) was determined as 0.72 unit. Besides, the “change in BRET ratio” value in data set [2] (cells transfected with pGFP::Rluc (without the caspase-3 site)) is “No change”.
Turning to Arg^8-vasopressin [AVP], the “BRET signal in presence of AVP” value on V2-R (V2-R:Rluc + GFP1:β-arrestin2, 10 min after DeepBlueC) is recorded as 0.129; at V2-R (V2-R:Rluc + β-arrestin2:GFP1, 10 min after DeepBlueC), 0.087. Also, on V2 receptor, the “BRET ratio in the presence of the agonist” value is recorded as “increased”.
